Measured values as given in US3980646A, “3-Methylpyrazole-5-carboxylates and medicaments containing these compounds” (Wulfing; Johann A., priority 1974, dated 1976).
Several values for one entry are separate records, joined by “and”; a condition that tells them apart may be missing. Identical values can stand only once. Entries after “also recorded” stand apart in the source; their conditions may differ.

How the values were obtained:
serum triglycerides = test: influence on the serum triglycerides of repeated application; format: in vivo, rats male (Wistar); settings: for serum triglycerides: individual animals, starve for 5 hours, 100 mg/kg; for serum triglycerides / serum triglycerides, mean (x10): 100 mg/kg x/day p.o.; for serum triglycerides, mean (x10): control 133.6
Description: Influence on the serum triglycerides of repeated application of
(§1) 100 mg/kg x/day p.o. rats male, starve for 5 hours, ether narcosis, heart
(§2) last application 1 hour before killing (cf. FIG. 3)

serum fatty acids (FFS) [1] = test: influence on the serum fatty acids (FFS) of normal animals; format: in vivo, Female rats (Wistar); settings: normal female rats, 100 mg/kg oral, 1 hour after application
Description: (§3) Investigations on a total of 260 Wistarrats were conducted with 7-[3-(N-methyl-N-2-hydroxyethyl)-amino-2-hydroxypropyl]-1,3-dimethylxanthine-3-methylpyrazole-5-carboxylate.
Examination of the influence of 7-[3-(N-methyl-N-2-hydroxy-
ethyl)-amino-2-hydroxypropyl]-1,3-dimethylxanthine-3-methyl-
pyrazole-5-carboxylate on the serum fatty acids (FFS) of
Female rats, starve for 5 hours
Dose: 100 mg/kg body weight, oral by esophagus probe,
Blood removal: 1 hour after application

mice = test: LD50 in mice; format: in vivo
cholesterol = test: assaying for cholesterol in starved rats; format: in vivo, Male Rats (Wistar)
Description: Assaying for cholesterol
Male Rats, starve for 18 hours, ether narcosis, heart puncture
100 mg/kg of 7-[3-(N-methyl-N-

serum fatty acids (FFS) [2] = test: influence on the serum fatty acids (FFS) of hyperlipacidaemic rats, alcohol lipolysis; format: in vivo, rats (Wistar); settings: alcohol 2 g/kg i.v., 100 mg/kg oral 3 hours before blood removal
Description: as §3
rats, starve for 5 hours,
Dose: alcohol 2g/kg body weight in 20% solution i.v.,
Dose: active principle according to the invention
100 mg/kg body weight, oral by esophagus probe
3 hours before blood removal

serum cholesterol = test: influence on the serum cholesterol of repeated application; format: in vivo, rats male (Wistar); settings: for serum cholesterol: individual animals, starve for 5 hours, 100 mg/kg; for serum cholesterol / serum cholesterol, mean (x10): 100 mg/kg x/day p.o.; for serum cholesterol, mean (x10): control 71.28
Description: Influence on the serum cholesterol of repeated application of
as §1, §2

[3] = general pharmacological effects (lipolysis inhibition, lipid lowering, tachyphylaxis, toxicity); format: in vivo
free fatty acids (FFS) = test: influence on the free fatty acids (FFS) after repeated application once daily for 4 days; format: in vivo, Rats male (Wistar); settings: individual animals; 4 × appl. 50 mg/kg p.o.; 30' after last application
Description: Rats male, repeated application once daily for 4 days,
on the 4th day groups of 10 animals were killed at
intervals of 30 minutes, 1 hour and 2 hours after the
last application by ether narcosis and heart puncture.
10 controls were given esophagus probe, animals starved
for 17 hours before killing (cf. FIG. 4)
7-[3-(N-methyl-2-hydroxyethyl)-amino-2-
hydroxypropyl]-1,3-dimethylxanthine-3-
methylpyrazole-5-carboxylate 50 mg/kg peroral
3-methylpyrazole-5-carboxylic acid (3-MPC)
eq./kg 15 mg/kg peroral

[4] = 100 mg/kg over 4 days, result in words

Question: With `CN(CCO)CC(O)Cn1cnc2c1c(=O)n(C)c(=O)n2C.Cc1cc(C(=O)O)[nH]n1` (stereo not drawn) [7-[3-(N-methyl-N-2-hydroxyethyl)-amino-2-hydroxypropyl]-1,3-dimethylxanthine-3-methylpyrazole-5-carboxylate] as the compound, how does the “effect on the serum triglycerides on repeated application” value (serum triglycerides; [4]) read?
Answer: uniform and, in some cases, even increased effect; also recorded: still significantly reduced

Question: And the serum triglycerides (serum triglycerides; 1st day)?
Answer: 85.9 mg% and 57.3 mg% and 118.6 mg% and 104.5 mg% and 65.9 mg% and 88.8 mg%

Question: And the “serum triglycerides, mean (x10)” value (serum triglycerides; 1st day)?
Answer: 82.6 mg%

Question: And the serum triglycerides (serum triglycerides; 2nd day)?
Answer: 38.7 mg% and 61.6 mg% and 54.4 mg% and 63.0 mg% and 95.9 mg% and 87.3 mg% and 127.4 mg% and 74.4 mg% and 57.2 mg% and 88.7 mg%

Question: And the “serum triglycerides, mean (x10)” value (serum triglycerides; 2nd day)?
Answer: 74.8 mg%

Question: And the serum triglycerides (serum triglycerides; 3rd day)?
Answer: 60.1 mg% and 63.0 mg% and 90.2 mg% and 108.8 mg% and 50.1 mg% and 97.4 mg% and 80.2 mg% and 105.9 mg% and 58.7 mg%

Question: What about the “serum triglycerides, mean (x10)” value (serum triglycerides; 3rd day) of the same compound?
Answer: 77.4 mg%

Question: What about the serum triglycerides (serum triglycerides; 4th day) of the same compound?
Answer: 30.1 mg% and 73.0 mg% and 67.0 mg% and 64.4 mg% and 60.1 mg% and 44.4 mg% and 58.7 mg% and 101.7 mg% and 67.3 mg%

Question: What about the “serum triglycerides, mean (x10)” value (serum triglycerides; 4th day) of the same compound?
Answer: 61.1 mg%

Question: And the FFS (serum fatty acids (FFS) [1]; individual animals, starve for 5 hours, 100 mg/kg)?
Answer: 0.51 μval/ml and 0.58 μval/ml and 0.52 μval/ml and 0.56 μval/ml and 0.57 μval/ml and 0.48 μval/ml and 0.54 μval/ml

Question: And the “FFS, mean (φ)” value (serum fatty acids (FFS) [1]; mean of test series, control φ 0.60)?
Answer: 0.53 μval/ml

Question: And the LD50 (mice; i.v.)?
Answer: 540 mg/kg

Question: What about the LD50 (mice; per oral) of the same compound?
Answer: more than 1000 mg/kg

Question: What about the “cholesterol level of starved rats” value (cholesterol; 100 mg/kg perorally, result in words) of the same compound?
Answer: significantly reduces the cholesterol level

Question: And the Cholesterol (cholesterol; individual animals, starve for 18 hours, 100 mg/kg per os 1 hour before killing, 100 mg/kg)?
Answer: 78.45 mg % and 50.86 mg % and 57.76 mg % and 47.71 mg % and 62.07 mg % and 48.28 mg % and 65.52 mg % and 56.03 mg % and 38.79 mg %

Question: What about the “Cholesterol, mean (x10)” value (cholesterol; mean of 10, starve for 18 hours, 100 mg/kg per os 1 hour before killing, control 75.69, p<0.001) of the same compound?
Answer: 57.07 mg %

Question: And the FFS (serum fatty acids (FFS) [2]; individual animals, 100 mg/kg)?
Answer: 0.45 μval/ml and 0.58 μval/ml and 0.59 μval/ml and 0.60 μval/ml and 0.52 μval/ml and 0.56 μval/ml and 0.43 μval/ml and 0.66 μval/ml and 0.67 μval/ml and 0.53 μval/ml

Question: What about the “FFS, mean (φ)” value (serum fatty acids (FFS) [2]; mean, control φ 0.64, alcohol series φ 0.79, p<0.001) of the same compound?
Answer: 0.56 μval/ml

Question: What about the “effect on the serum cholesterol on repeated application” value (serum cholesterol; [4]) of the same compound?
Answer: uniform and, in some cases, even increased effect; also recorded: still significantly reduced

Question: And the serum cholesterol (serum cholesterol; 1st day)?
Answer: 71.70 mg % and 49.06 mg % and 51.89 mg % and 67.92 mg % and 68.87 mg % and 52.83 mg % and 50.94 mg %

Question: What about the “serum cholesterol, mean (x10)” value (serum cholesterol; 1st day) of the same compound?
Answer: 58.68 mg %

Question: And the serum cholesterol (serum cholesterol; 2nd day)?
Answer: 37.4 mg % and 54.2 mg % and 55.2 mg % and 69.9 mg % and 65.0 mg % and 69.1 mg % and 39.4 mg % and 47.3 mg % and 49.3 mg % and 51.2 mg %

Question: What about the “serum cholesterol, mean (x10)” value (serum cholesterol; 2nd day) of the same compound?
Answer: 53.8 mg %

Question: What about the serum cholesterol (serum cholesterol; 3rd day) of the same compound?
Answer: 52.36 mg % and 71.24 mg % and 67.81 mg % and 50.64 mg % and 57.51 mg % and 64.38 mg % and 62.66 mg % and 68.67 mg % and 60.94 mg %

Question: And the “serum cholesterol, mean (x10)” value (serum cholesterol; 3rd day)?
Answer: 62.75 mg %

Question: And the serum cholesterol (serum cholesterol; 4th day)?
Answer: 42.98 mg % and 37.19 mg % and 52.07 mg % and 64.46 mg % and 80.99 mg % and 47.11 mg % and 65.29 mg % and 58.68 mg % and 50.41 mg % and 43.80 mg %

Question: And the “serum cholesterol, mean (x10)” value (serum cholesterol; 4th day)?
Answer: 54.30 mg %

Question: What about the “influence on free fatty acids (FFS)” value ([3]; doses down to 2 mg/kg, normal and hyperlipacidaemic rats (starved animals, alcohol animals)) of the same compound?
Answer: significantly influences the free fatty acids (FFS)

Question: What about the “effect (lipolysis inhibition, reducing triglyceride and cholesterol level, low toxicity)” value ([3]; result in words) of the same compound?
Answer: particularly marked effect

Question: What about the “free fatty acids (FFS)” value (free fatty acids (FFS)) of the same compound?
Answer: 0.72 μval/ml plasma and 0.94 μval/ml plasma and 0.69 μval/ml plasma and 0.83 μval/ml plasma and 1.36 μval/ml plasma and 0.89 μval/ml plasma and 0.66 μval/ml plasma and 0.67 μval/ml plasma and 0.86 μval/ml plasma and 1.07 μval/ml plasma
